Test [1] can be described thus: Trypanosoma cruzi growth suppression in host cells – NIH3T3 host cells, beta-gal luminescence, confirmation (AID 2044).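 Note: intracellular parasites grown in NIH/3T3 mouse fibroblasts as host cells; luminescent beta-galactosidase reporter signal from transgenic T. cruzi replicating inside host cells; inhibitors lower the luminescence signal.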 The format is functional, cell-based.
A short description of test [2]: NIH3T3 cell viability loss – ATP luminescence, mouse fibroblasts, counter-screen, dose response (AID 2010).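 Note: cells exposed to compound for about 90 hours before reading.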 Format: functional, cell-based.
Test [3] addresses T1, High affinity choline transporter 1 (Homo sapiens, UniProt Q9GZV3).
T1 sequence (Q9GZV3 whole entry): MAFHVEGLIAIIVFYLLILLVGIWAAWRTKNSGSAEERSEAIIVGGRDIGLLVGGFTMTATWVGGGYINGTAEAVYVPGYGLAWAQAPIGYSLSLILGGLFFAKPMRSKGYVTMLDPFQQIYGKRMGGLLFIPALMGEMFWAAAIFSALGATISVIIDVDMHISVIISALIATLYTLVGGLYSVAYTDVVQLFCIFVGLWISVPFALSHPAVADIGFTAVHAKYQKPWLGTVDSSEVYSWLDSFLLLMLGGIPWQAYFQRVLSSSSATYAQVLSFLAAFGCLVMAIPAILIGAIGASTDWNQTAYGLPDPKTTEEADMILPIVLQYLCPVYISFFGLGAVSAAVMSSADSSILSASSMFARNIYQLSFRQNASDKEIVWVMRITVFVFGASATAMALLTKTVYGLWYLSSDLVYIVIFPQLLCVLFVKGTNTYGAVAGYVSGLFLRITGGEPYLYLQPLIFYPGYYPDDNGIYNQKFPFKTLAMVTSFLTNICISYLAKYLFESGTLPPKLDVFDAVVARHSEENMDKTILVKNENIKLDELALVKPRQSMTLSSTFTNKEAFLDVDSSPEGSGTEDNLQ
Nature of the test: human choline transporter blockers, potency – cell-based, 5-point CRC, membrane potential dye, dose response (AID 504840). Format: functional.

The target of test [4] is T1, High affinity choline transporter 1. The test can be described thus: human choline transporter blockers, potency – cell-based, 10-point CRC, membrane potential dye, dose response (AID 588401).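 Note: membrane potential dye fluorescence of choline-evoked depolarization via CHT.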 The format is functional.
Test [5] concerns the target Melanin-concentrating hormone receptor 1 (Homo sapiens, UniProt Q99705). The test can be described thus: Late-stage fluorescence-based counterscreen for antagonists of the G-protein coupled receptor 7 (GPR7): cell-based dose response assay to identify antagonists of the melanin-concentrating hormone receptor 1 (MCHR1) Set 6. Format: functional. For orientation: A counterscreen serves to expose hits that act by an unwanted route or on another target.

Test [6] concerns the target Neuropeptides B/W receptor type 1 (Homo sapiens, UniProt P48145). Nature of the test: human NPBW1 receptor blockade, IC50 – cell-based, fluorescence, dose response, set 6, late-stage follow-up (AID 588583). The format is functional.
Test [7] has as its target Ribosomal protein S6 kinase alpha-3 (Homo sapiens, UniProt P51812). Format: functional.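 Note: measured within a kinome-wide profiling panel.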
The target in test [8] is Tyrosine-protein kinase JAK2 (Homo sapiens, UniProt O60674). Format: functional.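 Note: JAK2 tested as one member of a kinase panel.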
Test [9] concerns the target Protein kinase C zeta type (Homo sapiens, UniProt Q05513). Format: functional.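 Note: measured as one member of a broad kinase profiling panel.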
The target in test [10] is Serine/threonine-protein kinase PLK3 (Homo sapiens, UniProt Q9H4B4). The format is functional.
Test [11] concerns the target RAC-gamma serine/threonine-protein kinase (Homo sapiens, UniProt Q9Y243). Format: functional.
The target of test [12] is 5'-AMP-activated protein kinase catalytic subunit alpha-1 (Homo sapiens, UniProt Q13131). Format: functional.
In test [13] the target is Protein kinase C delta type (Homo sapiens, UniProt Q05655). The format is functional.
Test [14] deals with Serine/threonine-protein kinase PLK4 (Homo sapiens, UniProt O00444). Format: functional.
The target of test [15] is Ribosomal protein S6 kinase beta-1 (Homo sapiens, UniProt P23443). The format is functional.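 Note: measured as one member of a kinome-wide profiling panel.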
Test [16] addresses Death-associated protein kinase 3 (Homo sapiens, UniProt O43293). Format: functional.
Test [17] has as its target Serine/threonine-protein kinase Chk2 (Homo sapiens, UniProt O96017). The format is functional.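 Note: CHEK2 entry within a kinome-wide screening panel.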
Test [18] deals with Mitogen-activated protein kinase 8 (Homo sapiens, UniProt P45983). The format is functional.
The target of test [19] is Serine/threonine-protein kinase pim-1 (Homo sapiens, UniProt P11309). The format is functional.
Another test deals with Aurora kinase A (Homo sapiens, UniProt O14965). The format is functional.
The target in test [20] is MAP kinase-activated protein kinase 2 (Homo sapiens, UniProt P49137). The format is functional.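 Note: measured as one member of a kinome-wide kinase panel.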
Test [21] concerns the target Casein kinase II subunit alpha (Homo sapiens, UniProt P68400). Format: functional.
Test [22] has as its target Serine/threonine-protein kinase PAK 4 (Homo sapiens, UniProt O96013). Format: functional.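 Note: value obtained within a kinome profiling panel in which PAK4 was one of the panel members.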
Test [23] addresses Serine/threonine-protein kinase PAK 1 (Homo sapiens, UniProt Q13153). Format: functional.
The target in test [24] is Fibroblast growth factor receptor 1 (Homo sapiens, UniProt P11362). Format: functional.
The target of test [25] is Tyrosine-protein kinase JAK3 (Homo sapiens, UniProt P52333). The format is functional.
Tyrosine-protein kinase JAK3, sequence (P52333 whole entry): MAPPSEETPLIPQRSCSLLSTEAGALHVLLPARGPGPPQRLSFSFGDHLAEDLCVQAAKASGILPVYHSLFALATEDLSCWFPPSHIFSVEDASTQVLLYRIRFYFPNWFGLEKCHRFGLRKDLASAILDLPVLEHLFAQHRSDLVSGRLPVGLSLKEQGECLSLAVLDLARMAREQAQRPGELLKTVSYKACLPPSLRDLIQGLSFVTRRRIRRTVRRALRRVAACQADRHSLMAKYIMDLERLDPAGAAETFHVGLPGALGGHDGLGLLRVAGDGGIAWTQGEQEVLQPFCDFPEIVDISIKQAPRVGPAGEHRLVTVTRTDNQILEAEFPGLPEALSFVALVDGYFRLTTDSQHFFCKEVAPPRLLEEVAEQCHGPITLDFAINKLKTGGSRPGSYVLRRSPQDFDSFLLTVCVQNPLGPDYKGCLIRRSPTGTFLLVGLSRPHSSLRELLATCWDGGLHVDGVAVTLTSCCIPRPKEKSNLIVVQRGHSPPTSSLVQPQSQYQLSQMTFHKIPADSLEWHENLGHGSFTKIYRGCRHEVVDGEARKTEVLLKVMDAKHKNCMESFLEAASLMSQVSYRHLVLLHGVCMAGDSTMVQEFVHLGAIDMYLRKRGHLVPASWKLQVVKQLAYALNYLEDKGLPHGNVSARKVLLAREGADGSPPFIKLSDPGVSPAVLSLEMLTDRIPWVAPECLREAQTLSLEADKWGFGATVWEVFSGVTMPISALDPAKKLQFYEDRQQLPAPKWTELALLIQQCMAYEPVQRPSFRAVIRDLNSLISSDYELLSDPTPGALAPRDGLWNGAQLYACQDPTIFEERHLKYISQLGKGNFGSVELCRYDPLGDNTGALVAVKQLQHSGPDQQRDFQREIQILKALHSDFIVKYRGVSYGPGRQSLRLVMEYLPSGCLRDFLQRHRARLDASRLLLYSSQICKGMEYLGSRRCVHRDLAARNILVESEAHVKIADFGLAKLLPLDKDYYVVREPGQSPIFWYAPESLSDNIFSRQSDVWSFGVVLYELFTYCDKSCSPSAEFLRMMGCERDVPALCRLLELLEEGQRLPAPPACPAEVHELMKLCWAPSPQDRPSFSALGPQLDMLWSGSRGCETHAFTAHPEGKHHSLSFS
Test [26] addresses Mitogen-activated protein kinase 9 (Homo sapiens, UniProt P45984). The format is functional.
The target of another test is LIM domain kinase 1 (Homo sapiens, UniProt P53667). Nature of the test: Navigating the Kinome. Panel member name: LIMK1. Format: functional.
Test [27] has as its target Tyrosine-protein kinase Blk (Homo sapiens, UniProt P51451). The format is functional.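 Note: obtained as one member of a kinome-wide kinase assay panel.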
Test [28] has as its target MAP/microtubule affinity-regulating kinase 3 (Homo sapiens, UniProt P27448). The format is functional.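 Note: MARK3 affinity measured as one member of a kinome panel.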
The target in the next test is Insulin receptor (Homo sapiens, UniProt P06213). The format is functional.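 Note: insulin receptor kinase tested as one member of a kinome-wide kinase panel.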
Test [29] deals with Protein kinase C gamma type (Homo sapiens, UniProt P05129). The format is functional.
Test [30] concerns the target Proto-oncogene tyrosine-protein kinase Src (Homo sapiens, UniProt P12931). The format is functional.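 Note: SRC entry within a kinome-wide kinase profiling panel.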
Test [31] has as its target Glycogen synthase kinase-3 alpha (Homo sapiens, UniProt P49840). The format is functional.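 Note: GSK3A result taken from a broad kinome-wide kinase panel.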
Test [32] deals with Inhibitor of nuclear factor kappa-B kinase subunit alpha (Homo sapiens, UniProt O15111). The format is functional.
The target of test [33] is MAP kinase-activated protein kinase 3 (Homo sapiens, UniProt Q16644). The format is functional.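 Note: value comes from a kinome-wide profiling panel in which MAPKAPK3 is one of the panel members.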
The target in test [34] is Serine/threonine-protein kinase Chk1 (Homo sapiens, UniProt O14757). The format is functional.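 Note: measured as one member of a kinome-wide kinase profiling panel.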
For test [35], the target named is Casein kinase I isoform delta (Homo sapiens, UniProt P48730). Format: functional.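 Note: measured as one member (CSNK1D) of a kinome panel.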
Test [36] addresses Vascular endothelial growth factor receptor 2 (Homo sapiens, UniProt P35968). Format: functional.
For test [37], the target named is Cyclin-dependent kinase 5 (Homo sapiens, UniProt Q00535). The format is functional.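 Note: CDK5 measured as one member of a kinase profiling panel.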
In test [38] the target is Mitogen-activated protein kinase 1 (Homo sapiens, UniProt P28482). The format is functional.
In the next test the target is Aurora kinase B (Homo sapiens, UniProt Q96GD4). The format is functional.
The target in test [39] is Interleukin-1 receptor-associated kinase 4 (Homo sapiens, UniProt Q9NWZ3). The format is functional.
The target of test [40] is RAC-alpha serine/threonine-protein kinase (Homo sapiens, UniProt P31749). Format: functional.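 Note: AKT1 affinity measured as one member of a kinome-wide kinase profiling panel.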
Test [41] addresses Vascular endothelial growth factor receptor 3 (Homo sapiens, UniProt P35916). Format: functional.
In test [42] the target is Rho-associated protein kinase 1 (Homo sapiens, UniProt Q13464). Format: functional.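 Note: measured within a broad kinome-wide panel profiling many kinases.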
Rho-associated protein kinase 1, sequence (Q13464 whole entry): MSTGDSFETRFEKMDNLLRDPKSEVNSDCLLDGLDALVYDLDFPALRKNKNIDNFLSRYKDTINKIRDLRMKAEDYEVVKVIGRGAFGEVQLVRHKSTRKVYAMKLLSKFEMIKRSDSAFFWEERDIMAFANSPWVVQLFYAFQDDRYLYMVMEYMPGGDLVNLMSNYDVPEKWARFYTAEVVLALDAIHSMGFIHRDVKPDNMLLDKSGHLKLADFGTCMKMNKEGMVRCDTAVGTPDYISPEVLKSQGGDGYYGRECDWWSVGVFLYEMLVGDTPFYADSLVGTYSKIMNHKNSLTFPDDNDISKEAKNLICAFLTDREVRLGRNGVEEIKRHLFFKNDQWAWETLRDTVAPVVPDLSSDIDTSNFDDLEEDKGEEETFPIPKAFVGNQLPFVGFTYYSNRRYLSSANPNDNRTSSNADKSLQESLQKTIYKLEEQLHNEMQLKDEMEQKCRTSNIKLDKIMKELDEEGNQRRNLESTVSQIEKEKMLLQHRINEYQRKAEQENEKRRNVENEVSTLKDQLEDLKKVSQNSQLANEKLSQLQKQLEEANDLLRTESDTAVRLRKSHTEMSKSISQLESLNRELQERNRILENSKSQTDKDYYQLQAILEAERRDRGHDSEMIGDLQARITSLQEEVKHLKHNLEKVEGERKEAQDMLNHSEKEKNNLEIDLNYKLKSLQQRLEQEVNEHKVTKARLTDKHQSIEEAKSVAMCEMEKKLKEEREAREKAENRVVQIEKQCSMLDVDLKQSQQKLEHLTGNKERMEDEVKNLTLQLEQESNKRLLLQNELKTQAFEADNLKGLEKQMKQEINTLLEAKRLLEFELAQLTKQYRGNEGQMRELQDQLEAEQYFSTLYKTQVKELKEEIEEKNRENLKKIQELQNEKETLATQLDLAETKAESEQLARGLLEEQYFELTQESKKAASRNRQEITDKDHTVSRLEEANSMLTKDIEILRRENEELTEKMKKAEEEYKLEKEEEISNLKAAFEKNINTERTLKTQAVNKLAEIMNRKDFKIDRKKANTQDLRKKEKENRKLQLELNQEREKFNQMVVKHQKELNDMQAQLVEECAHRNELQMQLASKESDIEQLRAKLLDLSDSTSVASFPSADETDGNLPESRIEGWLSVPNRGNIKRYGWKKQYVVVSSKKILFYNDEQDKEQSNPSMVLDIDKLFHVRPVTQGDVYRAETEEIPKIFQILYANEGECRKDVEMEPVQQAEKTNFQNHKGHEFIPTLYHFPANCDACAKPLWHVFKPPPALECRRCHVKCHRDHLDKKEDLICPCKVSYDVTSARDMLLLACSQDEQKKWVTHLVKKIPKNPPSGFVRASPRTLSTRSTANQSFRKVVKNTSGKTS
Test [43] has as its target Calcium/calmodulin-dependent protein kinase type 1 (Homo sapiens, UniProt Q14012). The format is functional.
Test [44] addresses Cyclin-dependent kinase 1 (Homo sapiens, UniProt P06493). The format is functional.
In test [45] the target is 3-phosphoinositide-dependent protein kinase 1 (Homo sapiens, UniProt O15530). Format: functional.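 Note: value comes from the Navigating the Kinome panel, PDPK1 member.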
Test [46] has as its target Serine/threonine-protein kinase Nek2 (Homo sapiens, UniProt P51955). Format: functional.
In test [47] the target is Serine/threonine-protein kinase PLK1 (Homo sapiens, UniProt P53350). Format: functional.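 Note: PLK1 measured as one member of a kinome-wide profiling panel.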
Test [48] deals with Glycogen synthase kinase-3 beta (Homo sapiens, UniProt P49841). The format is functional.
The target of test [49] is BDNF/NT-3 growth factors receptor (Homo sapiens, UniProt Q16620). Format: functional.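 Note: NTRK2 measured as one member of a broad kinome-wide kinase profiling panel.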
Test [50] has as its target Receptor tyrosine-protein kinase erbB-4 (Homo sapiens, UniProt Q15303). The format is functional.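 Note: ERBB4 member of a kinome-wide kinase profiling panel.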
Test [51] deals with cAMP-dependent protein kinase catalytic subunit alpha (Homo sapiens, UniProt P17612). The format is functional.
Test [52] addresses Mitogen-activated protein kinase 12 (Homo sapiens, UniProt P53778). Format: functional.
The target of test [53] is Serine/threonine-protein kinase MRCK alpha (Homo sapiens, UniProt Q5VT25). The format is functional.
The target in test [54] is Dual specificity tyrosine-phosphorylation-regulated kinase 1A (Homo sapiens, UniProt Q13627). Format: functional.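 Note: measured against DYRK1A as one member of a broad kinome profiling panel.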
Test [55] addresses Inhibitor of nuclear factor kappa-B kinase subunit beta (Homo sapiens, UniProt O14920). Format: functional.
Test [56] has as its target Serine/threonine-protein kinase 3 (Homo sapiens, UniProt Q13188). The format is functional.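 Note: measured as one member of a kinome-wide kinase panel.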

Experimental findings from ChEMBL document CHEMBL1201862, “PubChem BioAssay data set” (2004) are described below.

The source made the active and inactive calls.

Serine/threonine-protein kinase 3, sequence (Q13188 whole entry): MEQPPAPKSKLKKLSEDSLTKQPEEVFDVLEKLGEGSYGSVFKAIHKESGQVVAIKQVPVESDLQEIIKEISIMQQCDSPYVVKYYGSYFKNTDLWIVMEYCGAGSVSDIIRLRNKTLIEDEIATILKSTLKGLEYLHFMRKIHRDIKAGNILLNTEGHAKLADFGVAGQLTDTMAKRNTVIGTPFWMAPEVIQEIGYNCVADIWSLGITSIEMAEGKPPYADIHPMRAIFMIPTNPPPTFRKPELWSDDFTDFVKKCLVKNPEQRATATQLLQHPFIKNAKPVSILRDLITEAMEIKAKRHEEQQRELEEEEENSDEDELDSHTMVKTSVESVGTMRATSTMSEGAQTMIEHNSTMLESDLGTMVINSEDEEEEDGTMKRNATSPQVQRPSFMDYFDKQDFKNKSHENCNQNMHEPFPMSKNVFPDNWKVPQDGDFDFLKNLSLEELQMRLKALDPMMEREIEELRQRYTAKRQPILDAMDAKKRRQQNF
Protein kinase C zeta type, sequence (Q05513 whole entry): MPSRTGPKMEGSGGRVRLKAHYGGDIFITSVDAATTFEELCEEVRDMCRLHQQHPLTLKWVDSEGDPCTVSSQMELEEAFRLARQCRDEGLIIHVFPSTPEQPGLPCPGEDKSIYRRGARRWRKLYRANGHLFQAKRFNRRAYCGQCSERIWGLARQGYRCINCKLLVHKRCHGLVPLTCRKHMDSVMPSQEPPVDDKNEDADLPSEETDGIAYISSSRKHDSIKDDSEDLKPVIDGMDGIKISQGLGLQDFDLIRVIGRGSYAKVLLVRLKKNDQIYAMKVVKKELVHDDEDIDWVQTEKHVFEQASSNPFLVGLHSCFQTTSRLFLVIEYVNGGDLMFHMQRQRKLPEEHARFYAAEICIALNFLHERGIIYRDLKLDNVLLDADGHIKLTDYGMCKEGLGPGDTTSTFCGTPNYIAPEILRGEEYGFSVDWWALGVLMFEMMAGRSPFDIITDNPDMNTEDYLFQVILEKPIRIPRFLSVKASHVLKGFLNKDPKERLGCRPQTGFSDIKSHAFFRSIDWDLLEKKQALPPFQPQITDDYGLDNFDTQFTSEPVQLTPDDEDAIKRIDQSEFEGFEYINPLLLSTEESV
Serine/threonine-protein kinase Chk2, sequence (O96017 whole entry): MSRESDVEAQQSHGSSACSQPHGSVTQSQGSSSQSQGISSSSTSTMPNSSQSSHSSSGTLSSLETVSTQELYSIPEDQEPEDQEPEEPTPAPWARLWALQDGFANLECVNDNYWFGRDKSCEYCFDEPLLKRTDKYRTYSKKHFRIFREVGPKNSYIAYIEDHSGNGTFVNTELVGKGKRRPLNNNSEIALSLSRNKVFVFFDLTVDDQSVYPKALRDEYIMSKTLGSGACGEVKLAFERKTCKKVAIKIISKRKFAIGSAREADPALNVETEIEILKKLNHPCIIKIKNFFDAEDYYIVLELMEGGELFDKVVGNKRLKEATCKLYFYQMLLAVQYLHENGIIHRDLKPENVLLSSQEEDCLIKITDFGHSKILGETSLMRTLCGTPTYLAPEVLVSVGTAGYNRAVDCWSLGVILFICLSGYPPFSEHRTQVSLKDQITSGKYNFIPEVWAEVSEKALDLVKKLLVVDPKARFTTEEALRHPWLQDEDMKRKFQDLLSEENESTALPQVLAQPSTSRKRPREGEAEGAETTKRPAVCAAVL
Cyclin-dependent kinase 1, sequence (P06493 whole entry): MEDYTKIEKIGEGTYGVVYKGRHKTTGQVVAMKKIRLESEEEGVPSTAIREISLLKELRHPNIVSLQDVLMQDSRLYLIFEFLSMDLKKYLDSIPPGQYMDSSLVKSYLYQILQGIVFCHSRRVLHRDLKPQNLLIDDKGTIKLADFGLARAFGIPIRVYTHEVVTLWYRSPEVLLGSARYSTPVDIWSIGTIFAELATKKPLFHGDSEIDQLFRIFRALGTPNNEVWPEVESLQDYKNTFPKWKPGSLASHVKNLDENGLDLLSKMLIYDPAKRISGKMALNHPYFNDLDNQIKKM
Death-associated protein kinase 3, sequence (O43293 whole entry): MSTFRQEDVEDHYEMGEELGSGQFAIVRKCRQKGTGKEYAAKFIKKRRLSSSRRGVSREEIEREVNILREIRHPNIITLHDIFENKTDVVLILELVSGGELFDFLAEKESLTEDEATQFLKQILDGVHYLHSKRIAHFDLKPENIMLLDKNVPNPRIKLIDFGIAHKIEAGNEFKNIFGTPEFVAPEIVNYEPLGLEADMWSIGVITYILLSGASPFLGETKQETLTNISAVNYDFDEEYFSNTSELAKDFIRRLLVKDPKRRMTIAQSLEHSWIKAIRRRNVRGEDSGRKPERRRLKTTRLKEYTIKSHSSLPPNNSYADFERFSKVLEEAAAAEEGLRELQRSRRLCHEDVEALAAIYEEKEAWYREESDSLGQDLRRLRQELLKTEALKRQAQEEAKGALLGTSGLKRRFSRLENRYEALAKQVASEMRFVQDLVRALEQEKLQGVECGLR

On to `CCOCCCN(C)C1CCN(C(=O)c2oc3ccccc3c2NC(=O)c2ccc(F)cc2)CC1`, for which the EC50 in test [1] was 0.267 µM (active); in test [2], > 60 µM (not active). For the same molecule, the values for the IC50 in test [3] and in [4] were 6.85 µM (active) and 6.69 µM (active), respectively.
For the molecule `Cc1ccccc1C(C#N)c1c(Cl)cnn(Cc2cccc3ccccc23)c1=O` (stereo not given), the IC50 in test [5] and in test [6] was 0.821 µM (active) in each case.
Consider `CCCCCCCCCCCCOc1ccc(NC(=N)N)cc1NC(=N)N` [LAUROGUADINE], for which the Ki in test [7] was 3.98 µM (active); in test [8], 1 µM (active); in test [9], 1.26 µM (active); in test [10] it was > 7.94 µM (inactive); in test [11], > 10 µM (inactive); in [12], > 10 µM (inactive). Also, the Ki was 0.631 µM (active) in [13]; > 3.98 µM (inactive) in test [14]; 1.26 µM (active) in [15]; 0.316 µM (active) in [16]; > 10 µM (inactive) in test [17]; > 3.16 µM (inactive) in test [18]. Besides, the Ki in [19] was 1.26 µM (active); on Aurora kinase A it was > 6.31 µM (inactive); in test [20] it was 3.98 µM (active); in test [21], > 6.31 µM (inactive); in test [22], > 5.01 µM (inactive); in test [23], 1.26 µM (active). For the same molecule, the Ki in test [24] was > 5.01 µM (inactive); in [25] it was 0.794 µM (active); in test [26], > 3.98 µM (inactive); on LIM domain kinase 1, 2 µM (active); in test [27] it was 1 µM (active); in [28], > 6.31 µM (inactive). Also, the Ki on Insulin receptor was > 5.01 µM (inactive); in [29] it was 2.51 µM (active); in test [30], > 5.01 µM (inactive); in [31] it was > 7.94 µM (inactive); in test [32] it was 1.26 µM (active); in test [33], 1.58 µM (active). Moreover, the Ki was > 7.94 µM (inactive) in test [34]; > 7.94 µM (inactive) in [35]; > 7.94 µM (inactive) in test [36]; > 10 µM (inactive) in [37]; > 7.94 µM (inactive) in test [38]; > 6.31 µM (inactive) at Aurora kinase B. The Ki in test [39] was 3.98 µM (active); in test [40] it was 3.98 µM (active); in [41], > 6.31 µM (inactive); in test [42], 2.51 µM (active); in [43], 3.98 µM (active); in test [44], 3.98 µM (active). Also, the Ki in test [45] was > 3.98 µM (inactive); in test [46], > 10 µM (inactive); in [47], > 7.94 µM (inactive); in [48], > 6.31 µM (inactive); in [49] it was 2 µM (active); in [50], 1.58 µM (active). The Ki in [51] is > 7.94 µM (inactive); in test [52], > 6.31 µM (inactive); in test [53] it was 2.51 µM (active); in test [54], > 6.31 µM (inactive); in test [55], > 3.16 µM (inactive); in test [56], 3.98 µM (active).

The EC50 is the concentration at which the effect is half-maximal. The term IC50 denotes the concentration that inhibits the measured activity by half. As usually defined, the Ki is a dissociation constant, usually derived from enzyme kinetics or from competition with a known ligand.
